According to patent publication US11998595B2, “Telomerase polypeptide vaccine for treating cancer” (Ultimovacs AS, priority 2010, dated 2024):

Legend:
[1] = system: stage IV lung cancer patients; experiment: Clinical course of vaccinated lung cancer patients; assay type: in vivo, human; parameters: key to Clinical response: PD = Progressive disease; SD = Stable disease; PR = Partial response; CR = Complete response
Description: A comparison of the patients studied in Example 4 was carried out. In brief, seven patients were identified as clinical responders following a cancer diagnosis and vaccination with an hTERT vaccine. These patients were identified based on a combination of prolonged survival and clinical response. The clinical response could either be stable disease (SD), partial response (PR) or complete response (CR). The vaccinated melanoma patients were diagnosed with stage IV at the time of inclusion in the clinical trial, but had no brain metastases. Lung cancer patient P5 was diagnosed with stage IV, inoperable lung cancer and colon cancer patient P1 with late stage inoperable colon cancer. Lung cancer patient P6 was a stage IV lung cancer patient with a 12-week life expectancy. Pancreas cancer patient P1 had relapsed, inoperable pancreas cancer and a life expectancy of 8-10 months. Four of the patients (designated Melanoma P7-P8, Lung cancer P5 and Colon cancer P1) had each been vaccinated with the peptide GV1001 (SEQ ID NO. 10). The fifth patient (designated Lung cancer P6) and the sixth patient (designated Pancreas cancer 1) had been vaccinated with dendritic cells transfected with mRNA encoding hTERT. The seventh patient, Melanoma patient P9, had not been vaccinated at the time of the study and instead developed a spontaneous response following development of the cancer. (An eighth and final patient was also identified as a clinical responder but samples from this patient were not available for study.)
(§1) Four patients who were clinical non-responders following a lung cancer diagnosis and a GV1001 (SEQ ID NO. 10) peptide vaccination were studied. These patients were all stage IV lung cancer patients vaccinated with GV1001. […] The proliferative T-cell responses of each patient to a series of peptides were determined in the same manner as in Example 1, at one time point. The peak response of each patient during the study period to peptide GV1001 is also shown which confirms that each patient responded immunologically to GV1001 vaccination.
The patients were classed as either clinical responders or clinical non-responders based on their clinical response which included stable disease (SD), tumour regression (PR or CR) and unexpectedly long survival time. Both clinical responders and clinical non-responders were selected from the same or similar vaccination trials.

T cells (patient PBMCs) = experiment: T-cell proliferation assay (3H-thymidine) of patient PBMC/T cells with hTERT peptides or transfected DC; assay type: cell-based, human
Description: FIG. 1 is a bar graph summarising hTERT T-cell responses detected in pancreas cancer patient vaccinated with DC transfected with hTERT mRNA. In samples from various time points throughout a vaccination schedule, T-cell responses against 24 overlapping hTERT 15-mer peptides were detected. Proliferation in response to peptide-loaded PBMC was measured by ^3H-thymidine incorporation. A stimulation index of >2 is considered an immune response.
Peripheral blood mononuclear cells (PBMCs) were obtained prior to the four standard vaccinations, after 5 weeks and after 12 weeks. PBMCs were also obtained before each monthly booster vaccination. The PBMCs were isolated and frozen as previously described (Kyte et al, 2005). Thawed PBMCs were stimulated once in vitro with tDCs (not with mockDCs) and cultured and then tested in T cell proliferation assays (^3H Thymidine) as previously described (Kyte et al 2006). The T cells were tested in triplicates. Irradiated tDCs and mock-transfected DC controls (mockDCs) were used or PBMC with or without hTERT peptide as APCs. Negative controls with T cells only were included.
PBMCs from various time points were stimulated with an overlapping hTERT 15-mer peptide library or a 30-mer hTERT peptide, all from ProImmune and then tested in proliferation assays as above using irradiated PBMCs as APCs as described in (Bernhardt et al 2006).
T-cell responses to a hTERT peptide library (including the polypeptides from Table 1) were determined for T-cells from 5 patients in addition to the patients reported in Examples 1 and 2. The methods were the same as previously described in Example 1 or in Bernhardt et al 2006. In brief, PBMCs from various time points during vaccination were stimulated with the overlapping hTERT peptide library prior to testing for specific T-cell responses in proliferation assays.
The proliferative T-cell responses of each patient to a series of peptides were then determined as explained in Example 1. The results are tabulated in Table 5 and are shown graphically in FIG. 14 in which the peptide designations are referenced in Table 6 (the results for peptides 726 and GV1001 are shown only for comparison).
as §1
Six patients who were clinical non-responders following a melanoma cancer diagnosis and a GV1001 peptide (SEQ ID NO. 10) vaccination were studied. These patients were all stage IV melanoma patients and included in the same GV1001 vaccination trial as melanoma patients P7 and P8 who were long term survivors (see Example 6). […] Five of the patients also experienced progressive disease and one patient, designated Melanoma P3, experienced some stabilization of the disease but still had short survival. The proliferative T-cell responses of each patient to a series of peptides were determined in the same manner as in Example 1, at one time point. The peak response of each patient during the study period to peptide GV1001 is also shown which confirms that each patient responded immunologically to GV1001 vaccination.

Q: Which “Clinical Responder” value ([1]; patient Lung ca P1) does the source give for “EARPALLTSRLRFIPK (listed as Homo sapiens) [GV1001]” here?
A: The value was “No”.

Q: What about the Clinical response ([1]; patient Lung ca P1) of the same sequence?
A: The Clinical response was “PD”.

Q: And the “Survival (Months)” value ([1]; patient Lung ca P1)?
A: The value was 14 Months.

Q: And the “Vaccine-specific T cell response at time-point tested” value (shortened to “Vaccine-specific T cell response”) ([1]; patient Lung ca P1)?
A: Its value is “Yes”.

Q: What about the “Clinical Responder” value ([1]; patient Lung ca P2) of the same sequence?
A: The value was “No”.

Q: What about the Clinical response ([1]; patient Lung ca P2) of the same sequence?
A: The Clinical response was “PD”.

Q: What about the “Survival (Months)” value ([1]; patient Lung ca P2) of the same sequence?
A: Its value is 6 Months.

Q: And the “Vaccine-specific T cell response” value ([1]; patient Lung ca P2)?
A: Its value is “Yes”.

Q: And the “Clinical Responder” value ([1]; patient Lung ca P3)?
A: The value was “No”.

Q: And the “Survival (Months)” value ([1]; patient Lung ca P3)?
A: Its value is 20 Months.

Q: And the “Vaccine-specific T cell response” value ([1]; patient Lung ca P3)?
A: Its value is “Yes”.

Q: And the “Clinical Responder” value ([1]; patient Lung ca P4)?
A: The value was “No”.

Q: What about the “Survival (Months)” value ([1]; patient Lung ca P4) of the same sequence?
A: The value was 10 Months.

Q: And the “Vaccine-specific T cell response” value ([1]; patient Lung ca P4)?
A: The value was “Yes”.

Q: And the “Clinical Responder” value ([1]; patient Lung ca P5)?
A: Its value is “Yes”.

Q: And the Clinical response ([1]; patient Lung ca P5)?
A: Its Clinical response is “alive, CR”.

Q: And the “Vaccine-specific T cell response” value ([1]; patient Lung ca P5)?
A: Its value is “Yes”.

Q: And the “Survival (Months)” value ([1]; patient Lung ca P5, + signifies that the patient is still alive)?
A: The value was 106+ Months.

Q: What about the SI of response (T cells (patient PBMCs); all patients of Example 6) of the same sequence?
A: The SI of response was greater than 2.

Q: And the “immunological response of patients” value (T cells (patient PBMCs); all patients of Examples 1 to 8)?
A: Its value is “All patients responded immunologically”.

Q: What about the “proliferative T-cell response (SI)” value (T cells (patient PBMCs); patient Colon ca P1, GV1001-vaccinated, clinical responder) of the same sequence?
A: Its value is 105.1.

Q: What about the “proliferative T-cell response (SI)” value (T cells (patient PBMCs); patient Lung ca P1, GV1001-vaccinated, clinical non-responder, one time point) of the same sequence?
A: Its value is 0.9.

Q: And the “Peak response GV1001” value (T cells (patient PBMCs); patient Lung ca P1, peak during study period)?
A: Its value is 60.95.

Q: And the “proliferative T-cell response (SI)” value (T cells (patient PBMCs); patient Lung ca P2, GV1001-vaccinated, clinical non-responder, one time point)?
A: Its value is 122.8.

Q: And the “Peak response GV1001” value (T cells (patient PBMCs); patient Lung ca P2, peak during study period)?
A: Its value is 122.8.

Q: What about the “proliferative T-cell response (SI)” value (T cells (patient PBMCs); patient Lung ca P3, GV1001-vaccinated, clinical non-responder, one time point) of the same sequence?
A: Its value is 1.4.

Q: And the “Peak response GV1001” value (T cells (patient PBMCs); patient Lung ca P3, peak during study period)?
A: The value was 161.6.

Q: What about the “proliferative T-cell response (SI)” value (T cells (patient PBMCs); patient Lung ca P4, GV1001-vaccinated, clinical non-responder, one time point) of the same sequence?
A: Its value is 1.2.

Q: What about the “Peak response GV1001” value (T cells (patient PBMCs); patient Lung ca P4, peak during study period) of the same sequence?
A: The value was 13.3.

Q: And the “proliferative T-cell response (SI)” value (T cells (patient PBMCs); patient Lung ca P5, GV1001-vaccinated, clinical responder)?
A: Its value is 20.1.

Q: And the “proliferative T-cell response (SI)” value (T cells (patient PBMCs); patient Lung ca P6, DC/hTERT mRNA-vaccinated, clinical responder, high background)?
A: The value was 7.1.

Q: And the “proliferative T-cell response (SI)” value (T cells (patient PBMCs); patient Melanoma P1, GV1001-vaccinated, clinical non-responder, one time point)?
A: Its value is 1.4.

Q: And the “Peak response GV1001” value (T cells (patient PBMCs); patient Melanoma P1, peak during study period)?
A: The value was 26.0.

Q: And the “proliferative T-cell response (SI)” value (T cells (patient PBMCs); patient Melanoma P2, GV1001-vaccinated, clinical non-responder, one time point)?
A: Its value is 0.9.

Q: What about the “Peak response GV1001” value (T cells (patient PBMCs); patient Melanoma P2, peak during study period) of the same sequence?
A: The value was 38.7.

Q: And the “proliferative T-cell response (SI)” value (T cells (patient PBMCs); patient Melanoma P3, GV1001-vaccinated, clinical non-responder, one time point)?
A: The value was 1.8.

Q: What about the “Peak response GV1001” value (T cells (patient PBMCs); patient Melanoma P3, peak during study period) of the same sequence?
A: The value was 3.7.

Q: What about the “proliferative T-cell response (SI)” value (T cells (patient PBMCs); patient Melanoma P4, GV1001-vaccinated, clinical non-responder, one time point) of the same sequence?
A: The value was 1.2.

Q: What about the “Peak response GV1001” value (T cells (patient PBMCs); patient Melanoma P4, peak during study period) of the same sequence?
A: The value was 10.7.

Q: What about the “proliferative T-cell response (SI)” value (T cells (patient PBMCs); patient Melanoma P5, GV1001-vaccinated, clinical non-responder, one time point) of the same sequence?
A: Its value is 25.2.

Q: And the “Peak response GV1001” value (T cells (patient PBMCs); patient Melanoma P5, peak during study period)?
A: The value was 35.4.

Q: What about the “proliferative T-cell response (SI)” value (T cells (patient PBMCs); patient Melanoma P6, GV1001-vaccinated, clinical non-responder, one time point) of the same sequence?
A: The value was 21.4.

Q: And the “Peak response GV1001” value (T cells (patient PBMCs); patient Melanoma P6, peak during study period)?
A: Its value is 122.0.

Q: And the “proliferative T-cell response (SI)” value (T cells (patient PBMCs); patient Melanoma P7, GV1001-vaccinated, clinical responder)?
A: Its value is 76.5.

Q: And the “proliferative T-cell response (SI)” value (T cells (patient PBMCs); patient Melanoma P8, GV1001-vaccinated, clinical responder)?
A: The value was 13.2.

Q: And the “proliferative T-cell response (SI)” value (T cells (patient PBMCs); patient Melanoma P9, non-vaccinated, spontaneous response)?
A: Its value is 1.7.

Q: What about the “proliferative T-cell response (SI)” value (T cells (patient PBMCs); patient Pancreas ca P1, DC/hTERT mRNA-vaccinated, clinical responder, high background) of the same sequence?
A: Its value is 2.2.
